Source: publication PMC8231556, “Inhibiting Endothelial Cell Function in Normal and Tumor Angiogenesis Using BMP Type I Receptor Macrocyclic Kinase Inhibitors” (Cancers, 2021)

Key:
Assay in all cases: radiometric kinase profiling (33 PanQinase)
Assay type in all cases: biochemical
[1] = target: T1, GSK3B (Homo sapiens, UniProt P49841); conditions: read-out: Inhibitory effect (%) GSK3B
T1 construct: purchased ProQinase (33PanQinase Activity Assay)
Method in brief: (§1)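 Enzyme/substrate mixes were incubated with [γ-33P]-ATP and compound (added as a 0.1 μM solution in 10% DMSO) at 30 °C for 60 min, then stopped with H3PO4 and washed with NaCl. 33P incorporation was scintillation-counted, and residual activity (%) was normalized to untreated control and background.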

[2] = target: T2, ACVR1B (Homo sapiens, UniProt P36896); conditions: read-out: Inhibitory effect (%) ACVR1B
T2 construct: purchased Proqinase, Germany
T2 sequence (P36896 24-505): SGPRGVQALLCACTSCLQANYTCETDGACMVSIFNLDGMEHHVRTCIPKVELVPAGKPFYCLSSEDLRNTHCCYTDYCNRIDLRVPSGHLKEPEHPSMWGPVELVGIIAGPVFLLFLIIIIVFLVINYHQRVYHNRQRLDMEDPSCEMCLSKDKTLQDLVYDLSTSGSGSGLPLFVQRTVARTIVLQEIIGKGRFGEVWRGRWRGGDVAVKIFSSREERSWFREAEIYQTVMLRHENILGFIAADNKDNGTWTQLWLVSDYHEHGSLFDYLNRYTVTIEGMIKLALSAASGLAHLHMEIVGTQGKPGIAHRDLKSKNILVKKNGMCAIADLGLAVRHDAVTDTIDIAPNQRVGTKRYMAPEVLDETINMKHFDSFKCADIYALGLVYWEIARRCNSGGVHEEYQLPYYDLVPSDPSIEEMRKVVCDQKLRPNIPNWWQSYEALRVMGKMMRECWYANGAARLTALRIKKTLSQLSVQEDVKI
Method in brief: as §1

[3] = target: T3, AXL (Homo sapiens, UniProt P30530); conditions: read-out: Inhibitory effect (%) AXL
T3 construct: purchased Proqinase, Germany
T3 sequence (P30530 26-894): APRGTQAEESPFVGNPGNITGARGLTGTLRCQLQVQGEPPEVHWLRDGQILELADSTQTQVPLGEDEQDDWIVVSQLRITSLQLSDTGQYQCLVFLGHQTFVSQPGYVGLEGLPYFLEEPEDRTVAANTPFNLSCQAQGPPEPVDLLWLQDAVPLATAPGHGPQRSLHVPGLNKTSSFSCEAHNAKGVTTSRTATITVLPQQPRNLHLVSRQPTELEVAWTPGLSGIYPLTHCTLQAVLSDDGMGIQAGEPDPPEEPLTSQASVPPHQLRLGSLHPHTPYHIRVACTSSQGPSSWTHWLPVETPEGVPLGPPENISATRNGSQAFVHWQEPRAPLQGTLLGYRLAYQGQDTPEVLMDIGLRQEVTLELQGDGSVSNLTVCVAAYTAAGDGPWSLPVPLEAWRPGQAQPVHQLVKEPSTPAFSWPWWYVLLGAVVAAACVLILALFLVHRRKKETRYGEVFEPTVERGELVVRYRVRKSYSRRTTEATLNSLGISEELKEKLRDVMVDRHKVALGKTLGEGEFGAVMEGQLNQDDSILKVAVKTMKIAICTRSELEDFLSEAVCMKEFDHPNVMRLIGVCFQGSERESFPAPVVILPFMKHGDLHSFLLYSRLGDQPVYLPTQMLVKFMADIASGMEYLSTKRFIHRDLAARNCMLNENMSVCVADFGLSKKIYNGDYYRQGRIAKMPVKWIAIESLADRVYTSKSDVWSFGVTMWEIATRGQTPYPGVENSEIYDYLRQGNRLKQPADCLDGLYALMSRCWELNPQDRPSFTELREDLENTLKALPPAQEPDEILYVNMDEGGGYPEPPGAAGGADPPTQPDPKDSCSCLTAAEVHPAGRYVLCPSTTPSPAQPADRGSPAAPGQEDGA
Method in brief: as §1

[4] = target: T4, NTRK1 (Homo sapiens, UniProt P04629); conditions: read-out: Inhibitory effect (%) NTRK1
T4 construct: purchased ProQinase (33PanQinase Activity Assay)
Method in brief: as §1

[5] = target: T5, RET (Homo sapiens, UniProt P07949); conditions: read-out: Inhibitory effect (%) RET
T5 construct: purchased ProQinase (33PanQinase Activity Assay)
Method in brief: as §1

[6] = target: T6, DAPK1 (Homo sapiens, UniProt P53355); conditions: read-out: Inhibitory effect (%) DAPK1
T6 construct: purchased Proqinase, Germany
Method in brief: as §1

[7] = target: T7, NEK6 (Homo sapiens, UniProt Q9HC98); conditions: read-out: Inhibitory effect (%) NEK6
T7 construct: purchased ProQinase (33PanQinase Activity Assay)
Method in brief: as §1

T6 sequence (P53355 whole entry): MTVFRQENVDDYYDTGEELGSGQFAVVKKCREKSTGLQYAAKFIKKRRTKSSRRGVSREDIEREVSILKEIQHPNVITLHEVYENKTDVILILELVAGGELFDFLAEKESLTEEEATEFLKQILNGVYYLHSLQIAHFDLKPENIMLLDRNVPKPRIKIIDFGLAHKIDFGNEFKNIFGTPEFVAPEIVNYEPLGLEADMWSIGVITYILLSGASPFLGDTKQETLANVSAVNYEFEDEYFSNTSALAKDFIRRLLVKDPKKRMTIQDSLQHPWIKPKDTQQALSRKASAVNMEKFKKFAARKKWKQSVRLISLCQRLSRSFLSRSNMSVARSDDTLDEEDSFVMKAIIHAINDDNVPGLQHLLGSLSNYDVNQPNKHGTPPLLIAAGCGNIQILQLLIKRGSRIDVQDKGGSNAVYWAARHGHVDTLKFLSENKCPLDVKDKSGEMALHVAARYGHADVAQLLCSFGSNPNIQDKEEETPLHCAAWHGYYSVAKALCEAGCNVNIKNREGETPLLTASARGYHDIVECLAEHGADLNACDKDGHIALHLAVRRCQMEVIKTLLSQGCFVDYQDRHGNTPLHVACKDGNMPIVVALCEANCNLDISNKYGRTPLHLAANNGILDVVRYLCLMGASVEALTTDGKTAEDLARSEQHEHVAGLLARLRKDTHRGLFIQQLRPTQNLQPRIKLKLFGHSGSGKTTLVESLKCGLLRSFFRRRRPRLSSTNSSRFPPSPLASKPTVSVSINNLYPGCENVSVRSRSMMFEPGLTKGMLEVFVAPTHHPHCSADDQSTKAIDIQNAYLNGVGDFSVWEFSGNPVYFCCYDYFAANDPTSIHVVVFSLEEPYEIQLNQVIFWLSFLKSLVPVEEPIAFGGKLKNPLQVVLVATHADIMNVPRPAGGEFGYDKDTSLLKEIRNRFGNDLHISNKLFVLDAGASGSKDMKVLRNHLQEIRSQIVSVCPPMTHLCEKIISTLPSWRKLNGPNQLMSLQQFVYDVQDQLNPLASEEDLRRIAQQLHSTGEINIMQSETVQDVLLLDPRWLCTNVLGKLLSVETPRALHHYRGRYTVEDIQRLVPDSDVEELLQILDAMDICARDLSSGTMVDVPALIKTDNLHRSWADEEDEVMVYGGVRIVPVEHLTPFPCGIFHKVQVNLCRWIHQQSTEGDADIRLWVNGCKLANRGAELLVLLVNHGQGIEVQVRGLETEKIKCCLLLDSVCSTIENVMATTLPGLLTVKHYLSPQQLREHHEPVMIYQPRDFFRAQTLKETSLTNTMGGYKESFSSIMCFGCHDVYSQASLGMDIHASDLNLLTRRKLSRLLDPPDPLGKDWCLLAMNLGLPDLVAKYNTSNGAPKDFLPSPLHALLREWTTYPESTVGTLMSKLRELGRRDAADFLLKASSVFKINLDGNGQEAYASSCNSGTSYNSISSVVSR
T7 sequence (Q9HC98 whole entry): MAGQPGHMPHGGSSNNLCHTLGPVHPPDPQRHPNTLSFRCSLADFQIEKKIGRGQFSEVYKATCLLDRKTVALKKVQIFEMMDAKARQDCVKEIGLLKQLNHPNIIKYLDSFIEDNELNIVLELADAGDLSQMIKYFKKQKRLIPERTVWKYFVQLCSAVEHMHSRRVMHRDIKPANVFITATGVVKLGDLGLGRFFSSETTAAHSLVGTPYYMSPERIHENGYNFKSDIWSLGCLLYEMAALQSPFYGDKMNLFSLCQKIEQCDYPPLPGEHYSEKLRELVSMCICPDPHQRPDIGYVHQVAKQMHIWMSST
T1 sequence (P49841 whole entry): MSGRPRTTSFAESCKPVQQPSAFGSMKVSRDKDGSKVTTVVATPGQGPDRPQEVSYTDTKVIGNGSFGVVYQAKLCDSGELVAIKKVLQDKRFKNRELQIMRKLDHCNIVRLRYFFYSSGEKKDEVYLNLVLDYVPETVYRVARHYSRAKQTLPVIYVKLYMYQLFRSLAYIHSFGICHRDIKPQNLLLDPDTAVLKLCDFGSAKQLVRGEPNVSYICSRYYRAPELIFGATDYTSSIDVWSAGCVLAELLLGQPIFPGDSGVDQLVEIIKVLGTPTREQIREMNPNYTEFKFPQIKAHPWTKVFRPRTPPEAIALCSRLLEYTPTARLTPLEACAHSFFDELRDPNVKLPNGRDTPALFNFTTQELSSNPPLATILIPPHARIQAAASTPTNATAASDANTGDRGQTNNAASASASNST
T5 sequence (P07949 29-1114): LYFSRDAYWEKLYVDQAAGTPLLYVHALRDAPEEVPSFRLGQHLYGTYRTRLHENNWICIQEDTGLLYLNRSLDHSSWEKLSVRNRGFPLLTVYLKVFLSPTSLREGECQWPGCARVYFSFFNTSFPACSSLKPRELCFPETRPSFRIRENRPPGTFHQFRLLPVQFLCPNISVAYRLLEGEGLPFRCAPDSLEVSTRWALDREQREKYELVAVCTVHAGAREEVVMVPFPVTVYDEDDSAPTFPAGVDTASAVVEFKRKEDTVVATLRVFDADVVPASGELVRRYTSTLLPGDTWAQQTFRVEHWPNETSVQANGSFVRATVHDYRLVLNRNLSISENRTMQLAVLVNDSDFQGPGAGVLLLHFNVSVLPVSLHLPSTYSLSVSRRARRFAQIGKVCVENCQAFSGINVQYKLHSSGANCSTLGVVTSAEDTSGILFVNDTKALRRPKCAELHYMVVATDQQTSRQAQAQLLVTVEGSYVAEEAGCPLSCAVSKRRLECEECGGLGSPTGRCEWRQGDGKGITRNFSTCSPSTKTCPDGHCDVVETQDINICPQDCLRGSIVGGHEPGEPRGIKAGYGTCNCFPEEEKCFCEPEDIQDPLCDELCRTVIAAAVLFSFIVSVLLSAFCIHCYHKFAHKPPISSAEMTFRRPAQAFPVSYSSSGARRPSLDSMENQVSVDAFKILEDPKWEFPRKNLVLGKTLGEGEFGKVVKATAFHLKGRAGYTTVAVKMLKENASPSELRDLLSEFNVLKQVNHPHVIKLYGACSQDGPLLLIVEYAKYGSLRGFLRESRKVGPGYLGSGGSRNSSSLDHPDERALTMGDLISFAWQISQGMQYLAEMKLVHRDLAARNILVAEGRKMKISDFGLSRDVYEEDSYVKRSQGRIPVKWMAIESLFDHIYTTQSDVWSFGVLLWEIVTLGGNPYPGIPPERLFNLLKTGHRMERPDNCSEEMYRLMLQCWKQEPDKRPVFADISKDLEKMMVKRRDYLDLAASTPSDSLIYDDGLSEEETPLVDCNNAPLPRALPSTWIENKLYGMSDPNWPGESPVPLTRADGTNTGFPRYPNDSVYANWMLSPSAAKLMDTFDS
T4 sequence (P04629 33-796): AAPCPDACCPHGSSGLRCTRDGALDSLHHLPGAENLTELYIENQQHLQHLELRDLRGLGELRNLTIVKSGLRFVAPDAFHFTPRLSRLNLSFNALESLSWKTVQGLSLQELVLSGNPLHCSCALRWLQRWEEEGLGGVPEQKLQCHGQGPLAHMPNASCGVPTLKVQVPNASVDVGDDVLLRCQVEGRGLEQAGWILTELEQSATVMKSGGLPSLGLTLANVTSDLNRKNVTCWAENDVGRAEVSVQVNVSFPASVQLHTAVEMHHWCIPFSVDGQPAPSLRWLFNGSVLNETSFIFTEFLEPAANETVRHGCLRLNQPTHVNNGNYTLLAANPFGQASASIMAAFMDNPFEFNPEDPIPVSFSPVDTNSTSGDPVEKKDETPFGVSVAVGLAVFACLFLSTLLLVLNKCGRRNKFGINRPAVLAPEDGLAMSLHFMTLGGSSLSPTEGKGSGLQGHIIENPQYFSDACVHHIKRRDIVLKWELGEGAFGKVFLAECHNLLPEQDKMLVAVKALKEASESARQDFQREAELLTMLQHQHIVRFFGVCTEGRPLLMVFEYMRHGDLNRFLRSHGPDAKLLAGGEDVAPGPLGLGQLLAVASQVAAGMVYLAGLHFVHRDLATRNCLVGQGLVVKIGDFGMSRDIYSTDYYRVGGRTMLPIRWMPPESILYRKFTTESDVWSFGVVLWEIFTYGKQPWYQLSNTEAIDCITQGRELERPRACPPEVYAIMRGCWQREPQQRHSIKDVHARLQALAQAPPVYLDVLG

c1ccc2c(-c3cnn4cc(-c5ccc(N6CCNCC6)cc5)cnc34)ccnc2c1 [LDN-193189, reference compound]
inhibition at 0.1 µM [1]: -28.2% | inhibition at 0.1 µM [2]: 23.9% | inhibition at 0.1 µM [3]: 10.7% | inhibition at 0.1 µM [4]: 14.1% | inhibition at 0.1 µM [5]: 10.8% | inhibition at 0.1 µM [6]: 11.3% | inhibition at 0.1 µM [7]: 7.05%

CN1CCc2cccc(c2)Nc2nccc(n2)N2CCCc3cc(ccc32)C1 [OD16]
inhibition at 0.1 µM [1]: 1.33% | inhibition at 0.1 µM [2]: 7.78% | inhibition at 0.1 µM [3]: -34.5% | inhibition at 0.1 µM [4]: -37.9% | inhibition at 0.1 µM [5]: -29.1% | inhibition at 0.1 µM [6]: -6.59% | inhibition at 0.1 µM [7]: -21.1%

CN1CCC(=O)NCCNc2ccn3ncc(c3n2)-c2cccc(c2)C1 [OD29]
inhibition at 0.1 µM [1]: 3.34% | inhibition at 0.1 µM [2]: 5.71% | inhibition at 0.1 µM [3]: 5.83% | inhibition at 0.1 µM [4]: 69.6% | inhibition at 0.1 µM [5]: 27.1% | inhibition at 0.1 µM [6]: -3.89% | inhibition at 0.1 µM [7]: 4.01%
